# Assays:
# MALT1 = MALT1 (Homo sapiens (Human), UniProt Q9UDY8); assay: MALT1 enzymatic activity inhibition (fluorescence, Ac-LRSR-AMC substrate); assay type: biochemical; conditions: recombinant MALT1 1.5 ng/μl, Ac-LRSR-AMC 1 μM
# Outline: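 Recombinant human MALT1 (1.5 ng/μl final) preincubated 10 min at rt with compounds in 50 mM HEPES pH 7.2-7.4, 100 mM NaCl, 900 mM sodium citrate, 10 mM DTT; 1 μM Ac-LRSR-AMC then added. AMC fluorescence read at start and after 30 min 37 °C plus 30 min rt; difference gives signal, % inhibition fitted to IC50.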
# [1] = test system: IL-2 MALT1-dependent release in Jurkat cells; assay: cells; assay type: cell-based; conditions: Homo sapiens; for EC50: Jurkat cells stimulated with antiCD3/antiCD28 for 24 h, IL-2 ELISA, read-out: EC50, IL-2 MALT1-dependent release inhibition
# Experimental: Jurkat cells (ATCC, USA) (100,000 cells/well in a 96 well flat-bottom plate (Greiner, #655061) were cultured in RPMI 1640 supplemented with 10% FBS at 37° C., 5% CO2 in a humidified cell culture incubator for 0.5-1 h. Then 10 μl/well 15× compound (or DMSO) was added in duplicates. Cells were incubated with compound in a humidified cell culture incubator for 0.5-1 h. After the incubation, 10 μl/well of 15× human antiCD3 HIT3a antibody (BioLegend) together with 10 μl/well of 15× human antiCD28 antibody (Invitrogen) were added to stimulate Jurkat cells for 24 h. After 24 h of stimulation, supernatants were collected and IL-2 levels in supernatants were assessed using IL-2 ELISA kit (Vector-Best, Russia).
# Sequence of MALT1 (Q9UDY8 whole entry): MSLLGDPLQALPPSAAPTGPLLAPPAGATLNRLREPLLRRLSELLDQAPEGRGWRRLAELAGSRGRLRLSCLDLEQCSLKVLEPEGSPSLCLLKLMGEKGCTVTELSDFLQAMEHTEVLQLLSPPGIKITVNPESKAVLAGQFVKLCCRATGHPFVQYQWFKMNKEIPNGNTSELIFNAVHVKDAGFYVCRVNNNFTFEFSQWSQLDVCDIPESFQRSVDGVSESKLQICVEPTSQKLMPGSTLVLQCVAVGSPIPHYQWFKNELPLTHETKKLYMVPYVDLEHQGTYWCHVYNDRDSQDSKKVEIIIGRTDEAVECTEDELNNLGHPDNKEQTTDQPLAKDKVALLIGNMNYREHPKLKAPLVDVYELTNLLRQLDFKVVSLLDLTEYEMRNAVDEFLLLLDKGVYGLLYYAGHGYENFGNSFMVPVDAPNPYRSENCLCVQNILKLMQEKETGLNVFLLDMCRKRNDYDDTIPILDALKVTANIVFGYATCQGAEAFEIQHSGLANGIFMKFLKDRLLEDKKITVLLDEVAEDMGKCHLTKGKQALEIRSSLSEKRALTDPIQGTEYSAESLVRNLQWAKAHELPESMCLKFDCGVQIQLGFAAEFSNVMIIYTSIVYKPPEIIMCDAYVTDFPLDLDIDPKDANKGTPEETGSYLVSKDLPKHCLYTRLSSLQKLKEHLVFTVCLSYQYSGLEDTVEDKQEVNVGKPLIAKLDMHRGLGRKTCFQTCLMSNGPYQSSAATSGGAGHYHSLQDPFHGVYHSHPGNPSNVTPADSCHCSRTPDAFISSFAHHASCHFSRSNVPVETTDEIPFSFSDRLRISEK
SMILES,EC50 (MALT1),EC50 [1],"CC50 ([1]; Jurkat, 24 h, read-out: CC50 (IL-2 MALT1-dependent release inhibition))"
"Cc1cc(NC(=O)Nc2cnc3ccnn3c2C2CCCC2)cnc1N1CCN(c2ccc3c(c2)CN(C2CCC(=O)NC2=O)C3=O)CC1 (stereo not drawn) [Compound 54, 1-(7-cyclopentylpyrazolo[1,5-a]pyrimidin-6-yl)-3-[6-[4-[2-(2,6-dioxo-3-piperidyl)-1-oxo-isoindolin-5-yl]piperazin-1-yl]-5-methyl-3-pyridyl]urea]",1 to 5 µM,> 5000 nM,
"Cc1cc(NC(=O)Nc2cnc3ccnn3c2C2CCCC2)cnc1-c1noc(CCOCCN2CCN(c3ccc4c(c3)CN(C3CCC(=O)NC3=O)C4=O)CC2)n1 (stereo not drawn) [Compound 16, 1-(7-cyclopentylpyrazolo[1,5-a]pyrimidin-6-yl)-3-[6-[5-[2-[2-[4-[2-(2,6-dioxo-3-piperidyl)-1-oxo-isoindolin-5-yl]piperazin-1-yl]ethoxy]ethyl]-1,2,4-oxadiazol-3-yl]-5-methyl-3-pyridyl]urea]",0.2 to 0.5 µM,1000 to 5000 nM,
"Cc1cc(NC(=O)Nc2cnc3ccnn3c2C(C)(C)C)cnc1-c1noc(CCCCC(=O)N2CCN(c3ccc4c(c3)CN(C3CCC(=O)NC3=O)C4=O)CC2)n1 (stereo not drawn) [Compound 127, 1-(7-tert-butylpyrazolo[1,5-a]pyrimidin-6-yl)-3-[6-[5-[5-[4-[2-(2,6-dioxo-3-piperidyl)-1-oxo-isoindolin-5-yl]piperazin-1-yl]-5-oxo-pentyl]-1,2,4-oxadiazol-3-yl]-5-methyl-3-pyridyl]urea]",1 to 5 µM,,
"O=C1CCC(N2Cc3cc(N4CCN(C(=O)CCCCn5cc(NC(=O)Nc6cnc7ccnn7c6C6CCC6)c(C(F)(F)F)n5)CC4)ccc3C2=O)C(=O)N1 (stereo not drawn) [Compound 152, 1-(7-cyclobutylpyrazolo[1,5-a]pyrimidin-6-yl)-3-[1-[5-[4-[2-(2,6-dioxo-3-piperidyl)-1-oxo-isoindolin-5-yl]piperazin-1-yl]-5-oxo-pentyl]-3-(trifluoromethyl)pyrazol-4-yl]urea]",1 to 5 µM,,
"Cc1cc(NC(=O)Nc2cnc3ccnn3c2C2CCCCC2)cnc1-c1noc(CCCCC(=O)Nc2ccc3c(c2)CN(C2CCC(=O)NC2=O)C3=O)n1 (stereo not drawn) [Compound 125, 5-[3-[5-[(7-cyclohexylpyrazolo[1,5-a]pyrimidin-6-yl)carbamoylamino]-3-methyl-2-pyridyl]-1,2,4-oxadiazol-5-yl]-N-[2-(2,6-dioxo-3-piperidyl)-1-oxo-isoindolin-5-yl]pentanamide]",0.5 to 1 µM,,
"O=C1CCC(N2Cc3cc(N4CCN(CCCCc5nc(-c6ncc(NC(=O)Nc7cnc8ccnn8c7C7CCCC7)cc6F)no5)CC4)ccc3C2=O)C(=O)N1 (stereo not drawn) [Compound 105, 1-(7-cyclopentylpyrazolo[1,5-a]pyrimidin-6-yl)-3-[6-[5-[4-[4-[2-(2,6-dioxo-3-piperidyl)-1-oxo-isoindolin-5-yl]piperazin-1-yl]butyl]-1,2,4-oxadiazol-3-yl]-5-fluoro-3-pyridyl]urea]",0.2 to 0.5 µM,,
"Cc1cc(NC(=O)Nc2cnc3ccnn3c2C2CCCC2)cnc1-c1noc(CCCCCC(=O)N2CCN(c3ccc4c(c3)CN(C3CCC(=O)N(COC(=O)C(C)(C)C)C3=O)C4=O)CC2)n1 (stereo not drawn) [Compound 102, [3-[5-[4-[6-[3-[5-[(7-cyclopentylpyrazolo[1,5-a]pyrimidin-6-yl)carbamoylamino]-3-methyl-2-pyridyl]-1,2,4-oxadiazol-5-yl]hexanoyl]piperazin-1-yl]-1-oxo-isoindolin-2-yl]-2,6-dioxo-1-piperidyl]methyl 2,2-dimethylpropanoate]",≤ 0.2 µM,,
"CC(C)c1c(NC(=O)Nc2ccc(-c3nnc(CCCCCC(=O)N4CCN(c5ccc6c(c5)CN(C5CCC(=O)NC5=O)C6=O)CC4)s3)nc2)cnc2ccnn12 (stereo not drawn) [Compound 129, 1-[6-[5-[6-[4-[2-(2,6-dioxo-3-piperidyl)-1-oxo-isoindolin-5-yl]piperazin-1-yl]-6-oxo-hexyl]-1,3,4-thiadiazol-2-yl]-3-pyridyl]-3-(7-isopropylpyrazolo[1,5-a]pyrimidin-6-yl)urea]",1 to 5 µM,,
"O=C1CCC(N2Cc3cc(N4CCN(CCCCCc5nc(-c6ncc(NC(=O)Nc7cnc8ccnn8c7C7CCCCC7)cc6Cl)no5)CC4)ccc3C2=O)C(=O)N1 (stereo not drawn) [Compound 99, 1-[5-chloro-6-[5-[5-[4-[2-(2,6-dioxo-3-piperidyl)-1-oxo-isoindolin-5-yl]piperazin-1-yl]pentyl]-1,2,4-oxadiazol-3-yl]-3-pyridyl]-3-(7-cyclohexylpyrazolo[1,5-a]pyrimidin-6-yl)urea]",≤ 0.2 µM,,

# More lines, main results first:
EC50 (MALT1),EC50 [1],SMILES,"CC50 ([1]; Jurkat, 24 h, read-out: CC50 (IL-2 MALT1-dependent release inhibition))"
≤ 0.2 µM,1000 to 5000 nM,"Cc1cc2ncc(NC(=O)Nc3cnc(-c4noc(CCCCCC(=O)N5CCN(c6ccc7c(c6)CN(C6CCC(=O)NC6=O)C7=O)CC5)n4)c(C)c3)c(C3CCCC3)n2n1 (stereo not drawn) [Compound 82, 1-(7-cyclopentyl-2-methyl-pyrazolo[1,5-a]pyrimidin-6-yl)-3-[6-[5-[6-[4-[2-(2,6-dioxo-3-piperidyl)-1-oxo-isoindolin-5-yl]piperazin-1-yl]-6-oxo-hexyl]-1,2,4-oxadiazol-3-yl]-5-methyl-3-pyridyl]urea]",
≤ 0.2 µM,,"O=C1CCC(N2Cc3cc(N4CCN(C(=O)CCCCCc5nc(-c6ncc(NC(=O)Nc7cnc8ccnn8c7C7CCC7)cc6Cl)no5)CC4)ccc3C2=O)C(=O)N1 (stereo not drawn) [Compound 116, 1-[5-chloro-6-[5-[6-[4-[2-(2,6-dioxo-3-piperidyl)-1-oxo-isoindolin-5-yl]piperazin-1-yl]-6-oxo-hexyl]-1,2,4-oxadiazol-3-yl]-3-pyridyl]-3-(7-cyclobutylpyrazolo[1,5-a]pyrimidin-6-yl)urea]",< 500 nM
≤ 0.2 µM,< 500 nM,"O=C1CCC(N2Cc3cc(N4CCN(Cc5nc(-c6ncc(NC(=O)Nc7cnc8ccnn8c7C7CCCC7)cc6Cl)no5)CC4)ccc3C2=O)C(=O)N1 (stereo not drawn) [Compound 56, 1-[5-chloro-6-[5-[[4-[2-(2,6-dioxo-3-piperidyl)-1-oxo-isoindolin-5-yl]piperazin-1-yl]methyl]-1,2,4-oxadiazol-3-yl]-3-pyridyl]-3-(7-cyclopentylpyrazolo[1,5-a]pyrimidin-6-yl)urea]",
≤ 0.2 µM,1000 to 5000 nM,"Cc1cc(NC(=O)Nc2cnc3ccnn3c2C2CCCC2)cnc1-c1noc(CCCCN2CCN(c3cc4c(cc3F)C(=O)N(C3CCC(=O)NC3=O)C4=O)CC2)n1 (stereo not drawn) [Compound 57, 1-(7-cyclopentylpyrazolo[1,5-a]pyrimidin-6-yl)-3-[6-[5-[4-[4-[2-(2,6-dioxo-3-piperidyl)-6-fluoro-1,3-dioxo-isoindolin-5-yl]piperazin-1-yl]butyl]-1,2,4-oxadiazol-3-yl]-5-methyl-3-pyridyl]urea]",
≤ 0.2 µM,,"O=C1CCC(N2Cc3cc(N4CCN(CCCCCCc5nc(-c6ncc(NC(=O)Nc7cnc8ccnn8c7C7CCCC7)cc6F)no5)CC4)ccc3C2=O)C(=O)N1 (stereo not drawn) [Compound 95, 1-(7-cyclopentylpyrazolo[1,5-a]pyrimidin-6-yl)-3-[6-[5-[6-[4-[2-(2,6-dioxo-3-piperidyl)-1-oxo-isoindolin-5-yl]piperazin-1-yl]hexyl]-1,2,4-oxadiazol-3-yl]-5-fluoro-3-pyridyl]urea]",
≤ 0.2 µM,,"O=C1CCC(N2Cc3cc(N4CCN(C(=O)CCCc5nc(-c6ncc(NC(=O)Nc7cnc8ccnn8c7C7CCCC7)cc6F)no5)CC4)ccc3C2=O)C(=O)N1 (stereo not drawn) [Compound 77, 1-(7-cyclopentylpyrazolo[1,5-a]pyrimidin-6-yl)-3-[6-[5-[4-[4-[2-(2,6-dioxo-3-piperidyl)-1-oxo-isoindolin-5-yl]piperazin-1-yl]-4-oxo-butyl]-1,2,4-oxadiazol-3-yl]-5-fluoro-3-pyridyl]urea]",
≤ 0.2 µM,,"Cc1cc(NC(=O)Nc2cnc3ccnn3c2C(C)C)cnc1-c1noc(CCCC(=O)N2CCN(c3ccc4c(c3)CN(C3CCC(=O)N(C)C3=O)C4=O)CC2)n1 (stereo not drawn) [Compound 144, 1-(7-isopropylpyrazolo[1,5-a]pyrimidin-6-yl)-3-[5-methyl-6-[5-[4-[4-[2-(1-methyl-2,6-dioxo-3-piperidyl)-1-oxo-isoindolin-5-yl]piperazin-1-yl]-4-oxo-butyl]-1,2,4-oxadiazol-3-yl]-3-pyridyl]urea]",
≤ 0.2 µM,,"Cc1cc(NC(=O)Nc2cnc3ccnn3c2C(C)C)cnc1-c1noc(CCCCCC(=O)N2CCN(c3ccc4c(c3)CN(C3CCC(=O)N(COC(=O)C(C)(C)C)C3=O)C4=O)CC2)n1 (stereo not drawn) [Compound 131, [3-[5-[4-[6-[3-[5-[(7-isopropylpyrazolo[1,5-a]pyrimidin-6-yl)carbamoylamino]-3-methyl-2-pyridyl]-1,2,4-oxadiazol-5-yl]hexanoyl]piperazin-1-yl]-1-oxo-isoindolin-2-yl]-2,6-dioxo-1-piperidyl]methyl 2,2-dimethylpropanoate]",
≤ 0.2 µM,,"O=C1CCC(N2Cc3cc(N4CCN(C(=O)CCCCc5nc(-c6ncc(NC(=O)Nc7cnc8ccnn8c7C7CC7)cc6Cl)no5)CC4)ccc3C2=O)C(=O)N1 (stereo not drawn) [Compound 160, 1-[5-chloro-6-[5-[5-[4-[2-(2,6-dioxo-3-piperidyl)-1-oxo-isoindolin-5-yl]piperazin-1-yl]-5-oxo-pentyl]-1,2,4-oxadiazol-3-yl]-3-pyridyl]-3-(7-cyclopropylpyrazolo[1,5-a]pyrimidin-6-yl)urea]",

# — US20250163066A1, “PROTACs of MALT1” (TEGID THERAPEUTICS, INC., priority 2022, published 2025)
